From publication PMC4669722, “Antitumour potential of BPT: a dual inhibitor of cdk4 and tubulin polymerization” (Cell Death & Disease, 2015)
Starred links: 1 amine or outer side, 2 acyl side, 3 side chain; linkers in the order of their positions; H or OH if unused. Positions of bridges follow the written chain, without caps; N, C: chain ends. Non-standard residues stand in square brackets, D forms with d. Residues, ends and D or L forms follow the SMILES beside them. Chains are numbered I, II in the order given. Actinocin(9to1) = Cc1c2oc3c(C)ccc(C(=O)[*:1])c3nc-2c(C(=O)[*:2])c(N)c1=O; NMeV = CN[C@H](C(=O)O)C(C)C; Sar = CNCC(=O)O

Legend:
NCI-H358 cells = assay: Flow cytometric cell cycle analysis, synchronized NCI-H358; assay type: cell-based, human; settings: NCI-H358, hydroxyurea 250 μM, 18 h
Protocol: The untreated (control) and treated (with test compounds) cells were harvested by trypsinization, washed once with PBS and then fixed in 70% chilled (−20 °C) ethanol for minimum 1 h. After the fixation step, cells were centrifuged for 5 min at 3000 × g at room temperature, and the pellet was suspended in PBS containing 50 μg/ml propidium iodide (Sigma-Aldrich, Dorset, UK; cat. no. P-4170) and 0.5 mg/ml DNase-free ribonuclease (Sigma-Aldrich; cat. no. R-5503). The cells were stained for 1 h in the dark at 4 °C. Cell cycle analysis was performed on the Beckman Coulter (Epics Altra) fluorescence-activated cell sorter (Beckman Coulter UK Ltd, Buckinghamshire, UK). To gate all the events that represent single cells, and not cell doublets or cell clumps, the following analyses were performed on the samples. Cytograms of propidium iodide fluorescence peak signal versus integrated fluorescence or the linear signal were plotted. All data points on the straight line were isolated in a single gate and the gated data was further used for plotting a histogram that represents a complete cell cycle. The total number of events was not allowed to exceed 200 events per s. Data acquisition was stopped after a minimum of 10 000 events had been collected.

tubulin = assay: Cell-free tubulin polymerization assay in vitro; assay type: biochemical; settings: 10 μM; control 19 mOD/min
Protocol: The purified tubulin was obtained commercially (Cytoskeleton Inc., Denver, CO, USA) and the polymerization assays were carried out according to the method described previously.[36] […] The resulting polymerization curves are representative of the three phases of microtubule polymerization, namely nucleation, growth and steady-state equilibrium. Paclitaxel and nocodazole were used in the assay as a known enhancer and inhibitor of tubulin polymerization, respectively. The ability of BPT to inhibit tubulin polymerization in vitro was determined according to the manufacturer's instructions. Briefly, tubulin protein (3 mg/ml) was polymerized in GTP buffer (80 mM PIPES, pH 6.9, 2 mM MgCl2, 0.5 mM EGTA, 10.2% glycerol and 1 mM GTP) in the presence of a range of BPT concentrations at 37 °C in a temperature-regulated Biotech spectrophotometer (Potton, Bedfordshire, UK). The absorbance (at 340 nm) kinetics of 61 cycles for each sample was studied and the readings were recorded at an interval of 1 min.

pBluescript plasmid DNA = assay: EtBr displacement assay; assay type: binding; settings: 1.3 μM EtBr, pH 7.4
Protocol: The assays were performed in a 96-well plate with clear bottom (Costar, Washington, DC, USA). The assay involved the addition of 10 μl of 10 × concentrated stock solution of compounds (dissolved in DMSO and further diluted in EtBr displacement assay buffer) to 90 μl of reaction mixture containing 6 μg of purified pBlueScript DNA and 1.3 μM EtBr in EtBr displacement assay buffer with final pH 7.4. Equivalent amounts of DMSO were added to the vehicle controls. In addition to control samples (DNA+EtBr), test samples (DNA+EtBr+test compounds), blank 1 (EtBr only), blank 2 (DNA only), wells containing DNA and compound were also prepared to test any change in the background fluorescence readings. The reduction in relative fluorescence counts was monitored ([…]) and recorded after 1 min equilibration time. Fascaplysin and actinomycin D, which are known to intercalate d-s DNA, were used as standard compounds in assay. The mean control and test readings were corrected by subtracting blank readings. The percentage fluorescence in the test samples in reaction with control samples was calculated by using following formula: […]

Row | Structure (SMILES) | Vmax of tubulin polymerization (tubulin) [mOD/min] | further results
1 | NC(=O)NO [Hydroxyurea, hydroxyurea, reference compound] | – | cells in G0/G1 (NCI-H358 cells): 77%
2 | COC(=O)Nc1nc2ccc(C(=O)c3cccs3)cc2[nH]1 [Nocodazole, nocodazole, reference compound] | 4.5 | –
3 | Cc1c2oc3c(C)ccc(C(=O)N[C@@H]4C(=O)N[C@H](C(C)C)C(=O)N5CCC[C@H]5C(=O)N(C)CC(=O)N(C)[C@@H](C(C)C)C(=O)O[C@@H]4C)c3nc-2c(C(=O)N[C@@H]2C(=O)N[C@H](C(C)C)C(=O)N3CCC[C@H]3C(=O)N(C)CC(=O)N(C)[C@@H](C(C)C)C(=O)O[C@@H]2C)c(N)c1=O [actinomycin D, reference compound] (I: T[dV]P[Sar][NMeV] / II: T[dV]P[Sar][NMeV]; ester I:1-I:C, II:1-II:C; linker I:N-II:N via Actinocin(9to1)) | – | EtBr displacement from DNA (pBluescript plasmid DNA): readily dislodges the bound EtBr
4 | CC(=O)O[C@H]1C(=O)[C@@]2(C)[C@H]([C@H](OC(=O)c3ccccc3)[C@]3(O)C[C@H](OC(=O)[C@H](O)[C@@H](NC(=O)c4ccccc4)c4ccccc4)C(C)=C1C3(C)C)[C@]1(OC(C)=O)CO[C@@H]1C[C@@H]2O [paclitaxel, reference compound] | 61 | –
